Data set [1] deals with A549 non-small cell lung cells; pancreatic cells (Panc-1); colon cells (HCT-116). Description: MTT Assay II. Format: cell-based. The source says: We conducted an MTT assay to measure cell metabolism as a surrogate for cell number using A549, Non-Small Cell Lung cells; pancreatic cells (Panc-1); and colon cells (HCT-116).
The test system of data set [2] is MDA-MB-231 human breast carcinoma cell line. Description: Growth inhibition studies on MDA-MB-231. The format is cell-based. From the text:
Growth inhibition studies on MDA-MB-231 human breast carcinoma cell line in the presence of gemcitabine (F2CDP-red) or cis-platin (CDDP-blue) alone (solid lines), or in combination with a non-toxic does of compound 2 (dashed lines).
Growth of the MDA-MB-231 cancer cell line is inhibited by compound 3.

Data set [3] has as its target T1, RR (Homo sapiens, UniProt P23921).
T1 sequence (P23921 1-792): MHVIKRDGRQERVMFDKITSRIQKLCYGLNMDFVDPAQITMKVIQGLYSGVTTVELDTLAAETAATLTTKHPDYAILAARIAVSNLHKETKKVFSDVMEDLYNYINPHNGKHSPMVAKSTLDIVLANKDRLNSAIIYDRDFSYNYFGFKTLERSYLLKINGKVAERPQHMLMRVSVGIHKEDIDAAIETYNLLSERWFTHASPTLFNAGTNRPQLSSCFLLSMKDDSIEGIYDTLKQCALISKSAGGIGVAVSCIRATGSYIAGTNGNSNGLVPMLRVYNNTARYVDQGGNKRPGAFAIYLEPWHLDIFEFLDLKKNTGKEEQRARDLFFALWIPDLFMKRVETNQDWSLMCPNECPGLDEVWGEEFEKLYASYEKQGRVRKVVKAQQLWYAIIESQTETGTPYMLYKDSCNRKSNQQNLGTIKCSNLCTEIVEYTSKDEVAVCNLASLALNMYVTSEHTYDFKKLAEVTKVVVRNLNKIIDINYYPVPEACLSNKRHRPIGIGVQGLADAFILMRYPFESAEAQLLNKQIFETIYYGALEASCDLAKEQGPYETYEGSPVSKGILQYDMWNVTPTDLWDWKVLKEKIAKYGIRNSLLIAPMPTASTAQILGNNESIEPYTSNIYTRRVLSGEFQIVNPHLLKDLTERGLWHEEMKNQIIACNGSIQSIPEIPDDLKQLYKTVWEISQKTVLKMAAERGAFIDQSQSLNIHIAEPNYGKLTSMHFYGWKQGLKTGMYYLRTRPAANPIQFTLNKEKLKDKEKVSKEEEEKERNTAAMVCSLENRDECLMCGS
The data set is described as follows: RR inhibition by ligands with anticancer properties (Table 4).

For data set [4], the system named is ribonucleotide reductase activity. Description: DNA synthesis assay.
Excerpt: The IC50 of a drug can be determined by constructing a
dose-response curve and examining the effect of different concentrations of a candidate agent on cell growth and/or ribonucleotide reductase enzyme activity. IC50 values can be calculated for a given compound by determining the concentration needed to inhibit half of the maximum biological response of the compound.
Data set [5] deals with A549 non-small cell lung cells; 231 triple negative breast cells; LN229. The data set is described as follows: MTT Assay I. The settings on record: continuous doses for three days; for IC50: 72 h, range over A549, 231, LN229; for ACTIVITY: A549, 231, LN229. The format is cell-based. How it is done: We conducted an MTT assay to measure cell metabolism as a surrogate for cell number using A549, Non-Small Cell Lung cells; 231, Triple negative breast cells; and LN229. All values are relative to untreated controls, corrected for any MTT absorbance due to media alone.
The cells were treated with continuous doses of the indicated drugs for three days, at which time the MTT assay was run. The control is listed as a dose of 0.1 uM because we plot on a log scale and wish to avoid taking the log of 0 in the calculations.

Setting [6] is: A549, Panc-1, HCT-116, read-out: IC50.

SMILES strings stand for the structures. Where two headings read alike, the source gives them in different places. Bounds are passed on as bounds.

Turning to `Nc1ccn([C@@H]2O[C@H](CO)[C@@H](O)C2(F)F)c(=O)n1` [Gemcitabien, reference compound], the IC50 in data set [1] (A549, Panc-1, HCT-116, read-out: IC50s) is 100 to 500 nM. Regarding `OC(COc1ccc(OCC(O)CN2CCN(C3c4ccccc4-c4ccccc43)CC2)cc1)CN1CCN(C2c3ccccc3-c3ccccc32)CC1` (stereo not shown) [Compound 2], in data set [1] (setting [6]), the IC50 fell in the range of 3000 to 8000 nM. The “effect on cytotoxicity of gemcitabine or cis-platin” value in data set [2] (combination with a non-toxic dose of compound 2) was “increases cytotoxicity of gemcitabine of cis-platin”. For the molecule `O=C(CCCCCCCCC(=O)N/N=C/c1c(O)ccc2ccccc12)N/N=C/c1c(O)ccc2ccccc12` [Compound 1], the IC50 in data set [1] (setting [6]) and in data set [3] was 600 to 2000 nM throughout. Turning to `O=C(CC1CCCCC1)N/N=C\c1cccc2cccc(O)c12` [Compound 3], the “cytotoxicity / growth inhibition” value in data set [2] (single agent) was “cytotoxic against human breast carcinoma cells”. This molecule also returned an IC50 in data set [3] of 225 nM. For the molecule `O=C(CCCCCCCCC(=O)N/N=C/c1c(O)ccc2ccccc12)N/N=C/c1c(O)ccc2ccccc12` [Drug 1], the IC50 in data set [4] was at most 1000 nM; in data set [5], 800 to 2000 nM. Moreover, the ACTIVITY result in data set [4] (DNA synthesis assay, exposed for 2 continuous days) is listed as “most potent”; in data set [5], “Steady effect on all three cell lines”.

On to `OC(COc1ccc(OCC(O)CN2CCN(C3c4ccccc4-c4ccccc43)CC2)cc1)CN1CCN(C2c3ccccc3-c3ccccc32)CC1` (stereo not shown) [Drug 2], for which, in data set [5], the IC50 was 3000 to 12000 nM and the ACTIVITY result is reported as “Shows an extremely dramatic effect”. In data set [4], `Cc1c2c(c(O)c3c(O)ccc(Cl)c13)C(=O)C1(O)C(=O)C(C(=O)O)=C(O)C(N(C)C)C1C2` (stereo not shown) [Drug 4] gave an IC50 of 50000 to 100000 nM. With `CCCCCCCCCCCCC(=O)NCC(=O)NC(CCCCN)C(=O)OC` (stereo not shown) [Compound 5], the IC50 in data set [3] fell in the range of 5000 to 10000 nM. On the same count and under the same terms, next, `OC(COc1ccc2c(c1)CCC2)CN1CCN(Cc2ccccc2)CC1` (stereo not shown) [Compound 4]: 5000 to 10000 nM.

These data come from patent US9889129B2, “Method of modulating ribonucleotide reductase” (Case Western Reserve University, priority 2012, dated 2018).
